# Patent publication US6309882A, “Antisense inhibition of replication protein a p70 subunit” (ISIS Pharmaceuticals, Inc., priority 1999, dated 2001)
# In the oligonucleotide strings, read from the 5' end, every base follows the letter of its sugar. An asterisk marks phosphorothioate; unmarked linkages are phosphodiester. Other units and linkages are bracketed, terminal groups are in braces. A string of capitals states the bases alone. d = 2'-deoxy (DNA)
# Tested on: RPA70 mRNA
# Experiment: RPA70 mRNA expression in A549 cells, Northern blot
# Type: cell-based, human
# Conditions: 400 nM oligonucleotide with LIPOFECTIN, RNA 24 h after addition
# Experimental: Antisense treatments were performed with phosphorothioate oligodeoxynucleotides. Cells were cultured in 6-well plates to 60-80% confluency for use in oligonucleotide treatments. Cells were washed once with OPTI-MEM™ (Life Technologies), pre-warmed to 37° C. Transfections were carried out in 1 ml OPTI-MEM™ containing 3 μg LIPOFECTIN™ (Life Technologies) per ml of Opti-MEM™ per 100 nM added oligonucleotide. OPTI-MEM™ containing the appropriate amount of LIPOFECTIN™ was added to the cells followed by addition of oligonucleotides from 1000×stocks. (For dose-response studies oligonucleotides were added from 20×stocks.) Cells were incubated for 5 h at 37° C. Following treatment, medium was removed and replaced with pre-warmed replete media (Bennett, C. F., et al., Mol. Pharm., 1992, 41, 1023-1033; Monia, B. P., et al., Nature Medicine, 1993, 2, 668-674).
# Target mRNA levels were assessed by Northern blotting with target specific random primed [α-^32 P]dCTP-labeled cDNA probes, as described below. cDNAs for probes were obtained by specific RT-PCR of cellular RNAs.
# For determination of mRNA levels by Northern blot, total RNA was prepared from cells 24 h after oligonucleotide addition using a SDS-lysis method (Peppel, K. and Baglioni, C., Biotechniques, 1990, 9, 711-713). Northern analysis was performed as described (Brown, T. and Mackey, K., in Current protocols in Molecular Biology (Ausubel, F. ed.), 1987, Vol. 1, pp. 4.9.1-4.912, Greene publishing, New York). To determine RPA70 mRNA expression RNA blots were probed using a random primed [α-^32 P]dCTP-labeled cDNA probe corresponding to a 562 nucleotide sequence (1519-2081) from human RPA70 (Erdile, L. F., et al., J. Biol. Chem., 1991, 266, 12090-12098). After transfer, membranes were prehybridized with Quik-Hyb solution (Stratagene, La Jolla, Calif.) for 1 h at 68° C. and then hybridized 1-4 hours with 12.5×10^6 cpm of cDNA probe and 2 μg salmon sperm DNA carrier in a total of 10 ml of hybridization solution. Following hybridization, membranes were washed twice at room temperature for 15 min in 2×SSC/0.1% SDS and then once at 60° C. for 30 min in 0.1×SSC/0.1% SDS.
# RNA on the blots was quantified by phosphorimaging on a Fuji FLA-2000. RPA70 mRNA levels are normalized to the level of RPA70 mRNA measured in cells treated with 400 nM control 20N-mer phosphorothioate oligonucleotide and expressed as percentage of control treated levels. Glyceraldehyde phosphate dehydrogenase (GAPDH) mRNA levels were probed using a random primed GAPDH cDNA generated by RT-PCR with human GAPDH primers (Stratagene, Inc., La Jolla, Calif.).
# To assess the ability of these oligonucleotides to inhibit RPA70 expression, A549 cells were treated with oligonucleotide at 400 nM in the presence of LIPOFECTIN™, and the level of RPA70 mRNA was measured by Northern blot analysis (see Table 3). Most oligonucleotides reduced RPA70 mRNA levels by 50% to 94%. […] This oligonucleotide targets a non-variant region located in the 3'-UTR of RPA70 mRNA and is not variance-specific.
Substance,% mRNA EXPRESSION [%],% mRNA INHIBITION [%]
"ISIS 12778: phosphorothioate oligodeoxynucleotide CCCACCCGGGTCCCGCGCCG, SEQ ID NO 3, targets RPA70 5'-UTR 0001-0020 (dC*dC*dC*dA*dC*dC*dC*dG*dG*dG*dT*dC*dC*dC*dG*dC*dG*dC*dC*dG)",2100,79
"ISIS 12779: phosphorothioate oligodeoxynucleotide GACCATGGCTCCACCGCCAA, SEQ ID NO 4, targets RPA70 AUG 0056-0075 (dG*dA*dC*dC*dA*dT*dG*dG*dC*dT*dC*dC*dA*dC*dC*dG*dC*dC*dA*dA)",35,65
"ISIS 12780: phosphorothioate oligodeoxynucleotide TGGCCGACCATGGCTCCACC, SEQ ID NO 5, targets RPA70 AUG 0061-0080 (dT*dG*dG*dC*dC*dG*dA*dC*dC*dA*dT*dG*dG*dC*dT*dC*dC*dA*dC*dC)",18,8200
"ISIS 12782: phosphorothioate oligodeoxynucleotide TGATGCTCATGACCAGCCTT, SEQ ID NO 7, coding 1881-1900 (dT*dG*dA*dT*dG*dC*dT*dC*dA*dT*dG*dA*dC*dC*dA*dG*dC*dC*dT*dT)",8,92
"ISIS 12783: phosphorothioate oligodeoxynucleotide ACTGCTCCTCTCACATCAAT, SEQ ID NO 8, STOP 1911-1930 (dA*dC*dT*dG*dC*dT*dC*dC*dT*dC*dT*dC*dA*dC*dA*dT*dC*dA*dA*dT)",28,72
"ISIS 12784: phosphorothioate oligodeoxynucleotide GATTCCATTCTGCCTATTTG, SEQ ID NO 9, 3'-UTR 1951-1970 (dG*dA*dT*dT*dC*dC*dA*dT*dT*dC*dT*dG*dC*dC*dT*dA*dT*dT*dT*dG; antisense)",43,57
"ISIS 12785: phosphorothioate oligodeoxynucleotide CTGCACTGTGTAGCTAACAT, SEQ ID NO 10, 3'-UTR 2001-2020 (dC*dT*dG*dC*dA*dC*dT*dG*dT*dG*dT*dA*dG*dC*dT*dA*dA*dC*dA*dT; antisense)",20,80
"ISIS 12786: phosphorothioate oligodeoxynucleotide GCACGAGGGAGGAAATTGCT, SEQ ID NO 11, 3'-UTR 2041-2060 (dG*dC*dA*dC*dG*dA*dG*dG*dG*dA*dG*dG*dA*dA*dA*dT*dT*dG*dC*dT; antisense)",73,27
"ISIS 12787: phosphorothioate oligodeoxynucleotide GAGCGTATTTTCCTTTGCCT, SEQ ID NO 12, 3'-UTR 2080-2099 (dG*dA*dG*dC*dG*dT*dA*dT*dT*dT*dT*dC*dC*dT*dT*dT*dG*dC*dC*dT; antisense)",18,82
"ISIS 12788: phosphorothioate oligodeoxynucleotide CAGAGGGAGTGACTGGTCTT, SEQ ID NO 13, 3'-UTR 2155-2174 (dC*dA*dG*dA*dG*dG*dG*dA*dG*dT*dG*dA*dC*dT*dG*dG*dT*dC*dT*dT; antisense)",43,57
"ISIS 12789: phosphorothioate oligodeoxynucleotide TGACTTACGACATAATTCCT, SEQ ID NO 14, 3'-UTR 2210-2229 (dT*dG*dA*dC*dT*dT*dA*dC*dG*dA*dC*dA*dT*dA*dA*dT*dT*dC*dC*dT; antisense)",62,38
"ISIS 12791: phosphorothioate oligodeoxynucleotide ATGGGGGGGGGTGGTCACCA, SEQ ID NO 16, 3'-UTR 2287-2306 (antisense; DNA, all phosphorothioate, methylation of C not given here)",88,12
